The source of these data is patent publication USRE47689E1, “Compounds for treating spinal muscular atrophy” (PTC Therapeutics, Inc., priority 2011, dated 2019).

Like-named read-outs stand apart in the source and are kept apart here. A value given as a limit tells only on which side of the number the result lay.

Data set [1] deals with SMN2 minigene (full length SMN2 minigene mRNA containing SMN2 exon 7). Description: SMN2 minigene mRNA splicing RT-qPCR assay in cultured cells. In kind it is cell-based, human. The settings on record: Homo sapiens, HEK293-H, read-out: EC1.5x for production of full length SMN2 mRNA. Put shortly: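 Lysates → one-step RT-qPCR, minigene-specific primers (0.4 μM final) + GAPDH multiplex, 40 cycles. FL/GAPDH vs DMSO; EC1.5x, star-binned.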
(Quantitative PCR measures a nucleic acid by following its amplification.)

In another data set the test system is Smn protein. Description: Smn protein assay in cultured cells (SMN HTRF). It is filed as cell-based, human. Conditions: 48 hours; for maximum fold (Fold) increase of Smn protein: SMA patient fibroblast cells, 7-point concentration data, fold increase relative to vehicle control (SMN HTRF); for EC1.5x (concentration giving 1.5-fold Smn protein increase): SMA Type 1 patient fibroblast cells (GM03813), 7-point concentration curve, SMN HTRF, concentration producing 1.5 times Smn protein vs DMSO vehicle control, read-out: EC1.5x for Smn protein expression. A digest of the protocol: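 Smn in SMA fibroblast lysates, measured by anti-SMN HTRF after 48 h compound exposure; EC1.5x from fold change over vehicle.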
In general terms: TR-FRET usually uses a lanthanide donor and a delayed reading to cut background.

The mark [2] stands for this setting: HEK293H cells stably transfected with SMN2-A minigene, 24 hours, 7-point concentration curve, 1.5-fold relative to vehicle-treated cells.

Usually melting point stands for the temperature, or range, at which the solid turns liquid. The compound `C[C@@H]1CN(c2cc(F)c3cc(-c4nc5c(F)cccc5o4)c(=O)oc3c2)C[C@H](C)N1` [Compound 367, 7-[(3R,5S)-3,5-dimethylpiperazin-1-yl]-5-fluoro-3-(4-fluoro-1,3-benzoxazol-2-yl)-2H-chromen-2-one] gave a melting point of 268 to 272 °C. Also, the EC (1.5-fold) in data set [1] (setting [2]) was 0.1 to 0.3 µM. The “maximum fold (Fold) increase of Smn protein” value (from here on “maximum fold (Fold) increase”) in the data set on Smn protein is “*** (fold increase between >1.35 and ≤1.5)”.
`Cc1cn2cc(-c3cc4ccc(N5CCCNCC5)cc4oc3=O)nc2c(C(F)(F)F)n1` [Cpd 607, 7-(1,4-diazepan-1-yl)-3-[6-methyl-8-(trifluoromethyl)imidazo[1,2-a]pyrazin-2-yl]-2H-chromen-2-one] gave a melting point of more than 300 °C. In addition, the EC (1.5-fold) in data set [1] (setting [2]) is less than 0.1 µM. For the same compound, in the data set on Smn protein, the EC1.5x (concentration giving 1.5-fold Smn protein increase) lay in the range of 300 to 1000 nM; the “maximum fold (Fold) increase” value is “*** (fold increase between >1.35 and ≤1.5)”.
Turning to `Cc1cn2cc(-c3cc4ccc(N5CCN(C6CCC6)CC5)cc4oc3=O)nc2cn1` [Compound 838, 7-(4-cyclobutylpiperazin-1-yl)-3-(6-methylimidazo[1,2-a]pyrazin-2-yl)-2H-chromen-2-one], the melting point lay in the range of 268 to 274 °C. Further, in data set [1] (setting [2]), the EC (1.5-fold) is less than 0.1 µM. In the data set on Smn protein, the EC1.5x (concentration giving 1.5-fold Smn protein increase) was less than 300 nM and the “maximum fold (Fold) increase” value was “***** (fold increase >1.65)”.
In turn, `COc1ccn2cc(-c3cc4ccc(N5CCCN(C)CC5)cc4oc3=O)nc2c1` [Compound 436, 3-(7-methoxyimidazo[1,2-a]pyridin-2-yl)-7-(4-methyl-1,4-diazepan-1-yl)-2H-chromen-2-one] had a melting point of 198 to 207 °C. The EC (1.5-fold) in data set [1] (setting [2]) was 3 to 30 µM. In the data set on Smn protein, the “maximum fold (Fold) increase” value is recorded as “* (maximum fold increase of ≤1.2)”.
`C[C@H]1CN(c2ccc3cc(-c4ccc(F)cc4Cl)c(=O)oc3c2)CCN1` [Compound 510, 3-(2-chloro-4-fluorophenyl)-7-[(3S)-3-methylpiperazin-1-yl]-2H-chromen-2-one]: the melting point fell in the range of 109 to 111 °C. The EC (1.5-fold) in data set [1] (setting [2]) was 3 to 30 µM. For the same compound, in the data set on Smn protein, the “maximum fold (Fold) increase” value is “* (maximum fold increase of ≤1.2)”.
In turn, `Cc1cn2cc(-c3cc4ccc(NC5C[C@H]6CCC[C@@H](C5)N6C)cc4oc3=O)cc2c(C)n1` (stereo partly drawn) [Compound 728, 3-(1,3-dimethylpyrrolo[1,2-a]pyrazin-7-yl)-7-{[(1R,5S)-9-methyl-9-azabicyclo[3.3.1]non-3-yl]amino}-2H-chromen-2-one] registered a melting point of 235 to 238 °C. The EC (1.5-fold) in data set [1] (24 h) was in the range of 0.3 to 1 µM. Also, in the data set with Smn protein, the “maximum fold (Fold) increase” value was “* (maximum fold increase of ≤1.2)”.
The like results for `Cc1ccc(-c2cc3ccc(N4CCNCC4)cc3oc2=O)cn1` [Compound 163, 3-(6-methylpyridin-3-yl)-7-(piperazin-1-yl)-2H-chromen-2-one] were, in that order, 148 to 150 °C, 3 to 30 µM and “* (maximum fold increase of ≤1.2)”.
As for `COc1ccn2cc(-c3cc4ccc(N5CCN[C@@H](C)C5)cc4oc3=O)nc2c1` [Compound 434, 3-(7-methoxyimidazo[1,2-a]pyridin-2-yl)-7-[(3S)-3-methylpiperazin-1-yl]-2H-chromen-2-one], the melting point lay within 250 to 256 °C. Besides, the EC (1.5-fold) in data set [1] (setting [2]) was in the range of 1 to 3 µM. The “maximum fold (Fold) increase” value in the data set on Smn protein was “** (fold increase between >1.2 and ≤1.35)”.
In turn, `Cc1cnc2nc(-c3cc4ccc(N5CCN[C@@H](C)C5)cc4oc3=O)cn2c1` [Compound 462, 3-(6-methylimidazo[1,2-a]pyrimidin-2-yl)-7-[(3S)-3-methylpiperazin-1-yl]-2H-chromen-2-one] showed a melting point of 254 to 256 °C. Also, the EC (1.5-fold) in data set [1] (setting [2]) is less than 0.1 µM. For the same compound, in the data set with Smn protein, the EC1.5x (concentration giving 1.5-fold Smn protein increase) was in the range of 1000 to 3000 nM; the “maximum fold (Fold) increase” value was “*** (fold increase between >1.35 and ≤1.5)”.
